This test addresses T1, KCNQ 2/3 channels (HEK293 cells stably expressing human KCNQ2 and KCNQ3 subunits) (Homo sapiens, UniProt O43525+O43526).
T1 construct: expressed in transfected cells; host or cells: HEK293
Description: KCNQ2/3 channel activation, thallium flux FLIPR assay (BTC-AM dye). As to conditions: for Emax: HEK293, maximum response relative to response of retigabine at 10 μM (set at 100%), read-out: Max. %; for EC50: HEK293 cells expressing human KCNQ2 and KCNQ3, FLIPR thallium flux. It is filed as cell-based. In short, it runs like this:
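HEK293 cells stably expressing human KCNQ2/KCNQ3 were loaded with BTC-AM and exposed to compound for 4 min in pH 7.3 gluconate buffer with ouabain. Thallium flux was triggered with 6 mM TlNO3 and 10 mM K2SO4 (stock additions) and fluorescence (ex 488, em 540 nm) recorded for 3 min. EC50 came from responses over baseline; maximal response is relative to 10 μM retigabine (100%).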

Structures are written as SMILES.

Usually EC50 stands for the concentration giving half of the maximal effect. Low readings indicate a more potent agent, high ones a less potent agent. `COc1ccc(CC(=O)Nc2nn3cc(C)cnc3c2CC(C)(C)C)cc1` [Example 18, N-[3-(2,2-dimethylpropyl)-6-methylpyrazolo[1,5-a]pyrimidin-2-yl]-2-(4-methoxyphenyl)acetamide]: the Emax was found to be 156% and the EC50 was in the range of 1 to 10 µM.
In the case of `Cc1ccnc2c(-c3cccc(C(F)(F)F)c3)c(NC(=O)CCC3CCCCC3)nn12` [Example 65, 3-cyclohexyl-N-{7-methyl-3-[3-(trifluoromethyl)phenyl]pyrazolo[1,5-a]pyrimidin-2-yl}propanamide], the Emax was found to be 56% and the EC50 was in the range of 0.1 to 0.5 µM.
Consider `CC(C)c1ccc(CC(=O)Nc2nn3cccnc3c2C(C)(C)C)cc1` [Example 166, N-(3-tert-butylpyrazolo[1,5-a]pyrimidin-2-yl)-2-(4-isopropylphenyl)acetamide], for which the Emax worked out at 154% and the EC50 was in the range of 0.5 to 1 µM.
The corresponding values for `COc1ccc(CC(=O)Nc2nn3c(C)cc(C)nc3c2CC(C)(C)C)cc1` [Example 16, N-[3-(2,2-dimethylpropyl)-5,7-dimethylpyrazolo[1,5-a]pyrimidin-2-yl]-2-(4-methoxyphenyl)acetamide] are 174% and 1 to 10 µM.
For `Cc1cc(C)n2nc(NC(=O)CCC3CC3)c(-c3ccc(Cl)c(C)c3)c2n1` [Example 114, N-[3-(4-chloro-3-methylphenyl)-5,7-dimethylpyrazolo[1,5-a]pyrimidin-2-yl]-3-cyclopropylpropanamide], the Emax worked out at 119% and the EC50 lay in the range of 0.1 to 0.5 µM.
Take `O=C(Cc1ccccc1O)Nc1nn2cccnc2c1-c1ccc(Cl)cc1` [Example 104, N-[3-(4-chlorophenyl)pyrazolo[1,5-a]pyrimidin-2-yl]-2-(2-hydroxyphenyl)acetamide]: the Emax stood at 10% and the EC50 is over 10 µM.
With `O=C(CC1CC2CCC1C2)Nc1nn2cccnc2c1-c1ccc(Cl)cc1` (racemic) [Example 158, (±)-exo-2-bicyclo[2.2.1]hept-2-yl-N-[3-(4-chlorophenyl)pyrazolo[1,5-a]pyrimidin-2-yl]acetamide], the Emax is 143% and the half-maximal effective concentration (EC50) fell in the range of 0.1 to 0.5 µM.
Turning to `Cc1ccn2nc(NC(=O)Cc3ccc(F)cc3)c(-c3ccc(OC(F)(F)F)cc3)c2n1` [Example 168, 2-(4-fluorophenyl)-N-{5-methyl-3-[4-(trifluoromethoxy)phenyl]pyrazolo[1,5-a]pyrimidin-2-yl}acetamide], the Emax amounted to 78% and the concentration for a half-maximal effect (EC50) is 0.1 to 0.5 µM.
On the same counts, the results for `Cc1cc(C)n2nc(NC(=O)CC3CCCCC3)c(-c3ccc(F)c(C)c3)c2n1` [Example 34, 2-cyclohexyl-N-[3-(4-fluoro-3-methylphenyl)-5,7-dimethylpyrazolo[1,5-a]pyrimidin-2-yl]acetamide] are 166% and under 0.1 µM.
`O=C(NCC1CCCCC1)Nc1nn2cccnc2c1-c1ccc(Cl)cc1` [Example 99, 1-[3-(4-chlorophenyl)pyrazolo[1,5-a]pyrimidin-2-yl]-3-(cyclohexylmethyl)urea]: the Emax is 94% and the concentration giving a half-maximal response (EC50) fell in the range of 1 to 10 µM.
The corresponding values for `Cc1cnc2c(-c3ccc(F)c(C)c3)c(NC(=O)CC34CC5CC(CC(C5)C3)C4)nn2c1` [Example 151, 2-(adamantan-1-yl)-N-[3-(4-fluoro-3-methylphenyl)-6-methylpyrazolo[1,5-a]pyrimidin-2-yl]acetamide] are 179% and under 0.1 µM.
On the same counts, the results for `CC(C)(C)OC(=O)Nc1nn2cccnc2c1/C=C/C1CCCCC1` [Example 177, tert-butyl {3-[(E)-2-cyclohexylvinyl]pyrazolo[1,5-a]pyrimidin-2-yl}carbamate] are 51% and 1 to 10 µM.
The corresponding values for `COc1cccc(CC(=O)Nc2nn3c(C)ccnc3c2CC(C)(C)C)c1` [Example 38, N-[3-(2,2-dimethylpropyl)-7-methylpyrazolo[1,5-a]pyrimidin-2-yl]-2-(3-methoxyphenyl)acetamide] are 163% and over 10 µM.
Regarding `Cc1cc(C)n2nc(NC(=O)CCC3CCCCC3)c(-c3ccc(Cl)c(C)c3)c2n1` [Example 48, N-[3-(4-chloro-3-methylphenyl)-5,7-dimethylpyrazolo[1,5-a]pyrimidin-2-yl]-3-cyclohexylpropanamide], the Emax came to 68% and the EC50 was in the range of 1 to 10 µM.
On to `COc1ccc(CC(=O)Nc2nn3cccnc3c2C(C)(C)C)cc1` [Example 155, N-(3-tert-butylpyrazolo[1,5-a]pyrimidin-2-yl)-2-(4-methoxyphenyl)acetamide], for which the Emax amounted to 116% and the EC50 was 1 to 10 µM.
Take `COc1cccc(CC(=O)Nc2nn3cc(C)cnc3c2-c2ccc(F)cc2)c1` [Example 26, N-[3-(4-fluorophenyl)-6-methylpyrazolo[1,5-a]pyrimidin-2-yl]-2-(3-methoxyphenyl)acetamide]: the Emax came to 154% and the EC50 was in the range of 0.5 to 1 µM.
On to `CC(C)(CC(=O)Nc1nn2cccnc2c1-c1ccc(Cl)cc1)c1ccccc1` [Example 117, N-[3-(4-chlorophenyl)pyrazolo[1,5-a]pyrimidin-2-yl]-3-methyl-3-phenylbutanamide], for which the Emax was 64% and the EC50 was over 10 µM.
Consider `CC(C)(C)OC(=O)Nc1nn2cccnc2c1-c1ccc(OC(F)(F)F)cc1` [Example 148, tert-butyl {3-[4-(trifluoromethoxy)phenyl]pyrazolo[1,5-a]pyrimidin-2-yl}carbamate], for which the Emax amounted to 20% and the EC50 is over 10 µM.
As to `Cc1cc(C)n2nc(NC(=O)COC3CCCC3)c(-c3ccc(Cl)c(C)c3)c2n1` [Example 134, N-[3-(4-chloro-3-methylphenyl)-5,7-dimethylpyrazolo[1,5-a]pyrimidin-2-yl]-2-(cyclopentyloxy)acetamide], the Emax is 11% and the EC50 was over 10 µM.
As to `Cc1cc(C)n2nc(NC(=O)CC3CCCCC3)c(-c3ccccc3)c2n1` [Example 94, 2-cyclohexyl-N-(5,7-dimethyl-3-phenylpyrazolo[1,5-a]pyrimidin-2-yl)acetamide], the Emax was 155% and the EC50 is under 0.1 µM.
On the same counts, the results for `O=C(Cc1ccc(F)cc1)Nc1nn2cccnc2c1-c1ccc(OC(F)(F)F)cc1` [Example 140, 2-(4-fluorophenyl)-N-{3-[4-(trifluoromethoxy)phenyl]pyrazolo[1,5-a]pyrimidin-2-yl}acetamide] are 66% and over 10 µM.
Turning to `COc1cccc(CC(=O)Nc2nn3cc(C)cnc3c2-c2ccc(OC(F)(F)F)cc2)c1` [Example 8, 2-(3-methoxyphenyl)-N-{6-methyl-3-[4-(trifluoromethoxy)phenyl]pyrazolo[1,5-a]pyrimidin-2-yl}acetamide], the Emax amounted to 140% and the EC50 fell in the range of 0.5 to 1 µM.
As for `Cc1cc(-c2c(NC(=O)Cc3ccc(F)cc3)nn3cccnc23)ccc1Cl` [Example 45, N-[3-(4-chloro-3-methylphenyl)pyrazolo[1,5-a]pyrimidin-2-yl]-2-(4-fluorophenyl)acetamide], the Emax turned out to be 95% and the EC50 was over 10 µM.
The corresponding values for `O=C(CCC1CCCC1)Nc1nn2cccnc2c1-c1cccc(F)c1` [Example 135, 3-cyclopentyl-N-[3-(3-fluorophenyl)pyrazolo[1,5-a]pyrimidin-2-yl]propanamide] are 143% and 0.1 to 0.5 µM.
